Measured values: article PMC12592502, “Unraveling the mechanisms behind the enhanced efficacy of β-lactam-based sideromycins” (Communications Biology, 2025)

Target: PBP1a (Acinetobacter baumannii, UniProt A0ABX6CK30)
Experiment: Membrane PBP binding assay, competition with Bocillin FL
Settings: A. baumannii ATCC 19606 membranes
Protocol: Membrane extracts containing PBPs were obtained as described above. Briefly, all species were grown in 1 L of TSB until the OD600 reached 0.9. The washed pellet was incubated with lysozyme (400 μg/mL), DNase (10 μg/mL) RNase(10 μg/mL) and anti-protease cocktail (200 mg/20 mL). Lysis was done with a French press (20,000 psi) and membrane protein were pelleted by ultracentrifugation steps (100,000 × g). The pellet was suspended in a minimal volume (300–500 μL) of KP 0.05 M buffer at pH 7. The protein concentration in the membrane preparations was determined with the Micro BCA TM Protein Assay Kit (Thermo Fisher Scientific, Rockford, IL) using bovine serum albumin as a standard.
The PBP binding assay was done as described previously[36],[56],[57]. For each antibiotic concentration tested, a quantity of 25 to 40 μg of membrane preparation was used as the source of PBPs, depending on the species. For the purified PaPBP3, 150 ng was used in the assay. First, increasing concentrations of the test antibiotic was added to the membrane or purified PaPBP3 preparations and incubated for 10 min at 30 °C. The reporter molecule Bocillin FL was then added at 12.5 μM for the membrane PBPs preparations and at 500 nM for the pure PaPBP3 samples for an additional 20 min at 30 °C. All reactions were stopped with the addition of the Laemmli-loading buffer (Bio-Rad) containing fresh β-mercaptoethanol (Sigma). All reactions were then heated at 100°C for 3 min before migration on SDS-polyacrylamide discontinuous gel system (7.5% stacking and 10% separating). Control samples without Bocillin FL were also included to highlight autofluorescent proteins that are not PBPs.
To be able to visualize labeled PBPs after electrophoresis, gels were rinsed in water and fixed in a solution of 50% methanol and 7% acetic acid for 30 min. The fluorescent images of gels were obtained with the Typhoon FLA 9500 instrument (GE-Healthcare Bio-Sciences Inc., Baie-d’Urfé, QC, CA) using a 473 nm excitation wavelength. To obtain quantifiable data, the software Quantity One 1D analysis was used (version 4.6.6; Bio-Rad Laboratories, Richmond, CA). The volume (intensity × constant area) of each PBP was measured. […] All IC50 data were obtained from at least two independent PBP binding assays using two different sets of compound concentrations using a linear regression. The PBP profiles were confirmed, and the PBP numbering were determined using published data and individual molecular weights. […] For example, amdinocillin (Sigma) was used for PBP2 identification. […] The IC50 for PBP 2 of P. aeruginosa was measured by including the SDS-PAGE comigrating autofluorescent protein in the background, as done previously.

Sequence of PBP1a (A0ABX6CK30 entry or part of it): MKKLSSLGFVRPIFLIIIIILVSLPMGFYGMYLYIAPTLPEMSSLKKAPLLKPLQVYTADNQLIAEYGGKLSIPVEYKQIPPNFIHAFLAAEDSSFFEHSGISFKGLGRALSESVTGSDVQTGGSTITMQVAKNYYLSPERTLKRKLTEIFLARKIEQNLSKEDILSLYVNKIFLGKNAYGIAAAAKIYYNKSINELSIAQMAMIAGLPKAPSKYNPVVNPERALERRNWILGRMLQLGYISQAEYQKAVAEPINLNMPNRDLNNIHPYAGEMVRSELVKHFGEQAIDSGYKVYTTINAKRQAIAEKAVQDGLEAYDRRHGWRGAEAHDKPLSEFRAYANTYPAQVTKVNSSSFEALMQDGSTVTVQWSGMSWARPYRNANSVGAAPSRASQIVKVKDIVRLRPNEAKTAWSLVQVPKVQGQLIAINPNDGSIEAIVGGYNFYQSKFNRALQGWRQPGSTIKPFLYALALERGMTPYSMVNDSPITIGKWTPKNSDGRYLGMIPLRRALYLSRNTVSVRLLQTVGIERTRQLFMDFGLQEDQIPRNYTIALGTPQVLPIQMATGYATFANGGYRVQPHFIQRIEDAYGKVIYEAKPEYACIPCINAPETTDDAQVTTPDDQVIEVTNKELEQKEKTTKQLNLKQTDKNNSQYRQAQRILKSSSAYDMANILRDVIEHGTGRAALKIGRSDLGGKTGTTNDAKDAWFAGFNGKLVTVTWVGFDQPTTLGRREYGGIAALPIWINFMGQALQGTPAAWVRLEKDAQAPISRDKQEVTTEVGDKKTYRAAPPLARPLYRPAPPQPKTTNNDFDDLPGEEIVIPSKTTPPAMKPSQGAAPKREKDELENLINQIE

N[C@@H](C(=O)N[C@@H]1C(=O)N2C(C(=O)O)=C(Cl)CC[C@H]12)c1ccccc1 [LOR, loracarbef, reference compound]
IC50: > 50 µM
